Source: PubChem BioAssay (NCI)
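All cell lines were grown in 96-well plates and treated with compound for 48 hours. TGI denotes the concentration required for complete inhibition of growth.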

What was measured:
Assay in all cases: NCI tumour cell line growth inhibition, 48 h
ACHN renal = tested on: ACHN renal
HCC-2998 colon = tested on: HCC-2998 colon
A549 NSCLC = tested on: A549 NSCLC
SF-295 CNS = tested on: SF-295 CNS
SF-539 CNS = tested on: SF-539 CNS
HCT-15 colon = tested on: HCT-15 colon
UO-31 renal = tested on: UO-31 renal
RPMI-8226 leukemia = tested on: RPMI-8226 leukemia
MALME-3M melanoma = tested on: MALME-3M melanoma
MOLT-4 leukemia = tested on: MOLT-4 leukemia
LOX IMVI melanoma = tested on: LOX IMVI melanoma
K-562 leukemia = tested on: K-562 leukemia
OVCAR-3 ovarian = tested on: OVCAR-3 ovarian
SNB-75 CNS = tested on: SNB-75 CNS
SW-620 colon = tested on: SW-620 colon
A498 renal = tested on: A498 renal
SNB-19 CNS = tested on: SNB-19 CNS
NCI-H460 lung = tested on: NCI-H460 lung
SK-MEL-2 melanoma = tested on: SK-MEL-2 melanoma
HCT-116 colon = tested on: HCT-116 colon
HOP-62 NSCLC = tested on: HOP-62 NSCLC
LXFL 529 NSCLC = tested on: LXFL 529 NSCLC
HOP-92 NSCLC = tested on: HOP-92 NSCLC
NCI-H522 lung = tested on: NCI-H522 lung
KM12 colon = tested on: KM12 colon
UACC-62 melanoma = tested on: UACC-62 melanoma
KM20L2 colon = tested on: KM20L2 colon
HL-60(TB) leukemia = tested on: HL-60(TB) leukemia
HT29 colon = tested on: HT29 colon
U251 CNS = tested on: U251 CNS
SNB-78 CNS = tested on: SNB-78 CNS
CCRF-CEM leukemia = tested on: CCRF-CEM leukemia
IGROV1 ovarian = tested on: IGROV1 ovarian
OVCAR-4 ovarian = tested on: OVCAR-4 ovarian
SN12C renal = tested on: SN12C renal
OVCAR-5 ovarian = tested on: OVCAR-5 ovarian
M14 melanoma = tested on: M14 melanoma
TK-10 renal = tested on: TK-10 renal
SF-268 CNS = tested on: SF-268 CNS
DMS 273 small cell lung = tested on: DMS 273 small cell lung
DMS 114 small cell lung = tested on: DMS 114 small cell lung
NCI-H226 lung = tested on: NCI-H226 lung
COLO 205 colon = tested on: COLO 205 colon
786-0 renal = tested on: 786-0 renal
NCI-H23 lung = tested on: NCI-H23 lung
RXF 393 renal = tested on: RXF 393 renal
OVCAR-8 ovarian = tested on: OVCAR-8 ovarian
SK-MEL-5 melanoma = tested on: SK-MEL-5 melanoma
CAKI-1 renal = tested on: CAKI-1 renal
UACC-257 melanoma = tested on: UACC-257 melanoma
DLD-1 colon = tested on: DLD-1 colon
RXF-631 renal = tested on: RXF-631 renal
SK-MEL-28 melanoma = tested on: SK-MEL-28 melanoma
M19-MEL melanoma = tested on: M19-MEL melanoma
SK-OV-3 ovarian = tested on: SK-OV-3 ovarian
HOP-18 NSCLC = tested on: HOP-18 NSCLC
EKVX NSCLC = tested on: EKVX NSCLC
XF 498 CNS = tested on: XF 498 CNS
SR leukemia = tested on: SR leukemia

S=c1nc(COc2ccc(Cl)cc2)[nH][nH]1
TGI (ACHN renal): > 100 µM
TGI (HCC-2998 colon): > 100 µM
TGI (A549 NSCLC): > 100 µM
TGI (SF-295 CNS): > 100 µM
TGI (SF-539 CNS): > 100 µM
TGI (HCT-15 colon): > 100 µM
TGI (UO-31 renal): > 100 µM
TGI (RPMI-8226 leukemia): > 100 µM
TGI (MALME-3M melanoma): > 100 µM
TGI (MOLT-4 leukemia): > 100 µM
TGI (LOX IMVI melanoma): > 100 µM
TGI (K-562 leukemia): > 100 µM
TGI (OVCAR-3 ovarian): > 100 µM
TGI (SNB-75 CNS): > 100 µM
TGI (SW-620 colon): > 100 µM
TGI (A498 renal): > 100 µM
TGI (SNB-19 CNS): > 100 µM
TGI (NCI-H460 lung): > 100 µM
TGI (SK-MEL-2 melanoma): > 100 µM
TGI (HCT-116 colon): > 100 µM
TGI (HOP-62 NSCLC): > 100 µM
TGI (LXFL 529 NSCLC): > 100 µM
TGI (HOP-92 NSCLC): > 100 µM
TGI (NCI-H522 lung): > 100 µM
TGI (KM12 colon): > 100 µM
TGI (UACC-62 melanoma): > 100 µM
TGI (KM20L2 colon): > 100 µM
TGI (HL-60(TB) leukemia): > 100 µM
TGI (HT29 colon): > 100 µM
TGI (U251 CNS): > 100 µM
TGI (SNB-78 CNS): > 100 µM
TGI (CCRF-CEM leukemia): > 100 µM
TGI (IGROV1 ovarian): > 100 µM
TGI (OVCAR-4 ovarian): > 100 µM
TGI (SN12C renal): > 100 µM
TGI (OVCAR-5 ovarian): > 100 µM
TGI (M14 melanoma): > 100 µM
TGI (TK-10 renal): > 100 µM
TGI (SF-268 CNS): > 100 µM
TGI (DMS 273 small cell lung): > 100 µM
TGI (DMS 114 small cell lung): > 100 µM
TGI (NCI-H226 lung): > 100 µM
TGI (COLO 205 colon): > 100 µM
TGI (786-0 renal): > 100 µM
TGI (NCI-H23 lung): > 100 µM
TGI (RXF 393 renal): > 100 µM
TGI (OVCAR-8 ovarian): > 100 µM
TGI (SK-MEL-5 melanoma): > 100 µM
TGI (CAKI-1 renal): > 100 µM
TGI (UACC-257 melanoma): > 100 µM
TGI (DLD-1 colon): > 100 µM
TGI (RXF-631 renal): > 100 µM
TGI (SK-MEL-28 melanoma): > 100 µM
TGI (M19-MEL melanoma): > 100 µM
TGI (SK-OV-3 ovarian): > 100 µM

Cc1cc(C)nc(NS(=O)(=O)c2ccc(Nc3c4ccccc4nc4c(C(=O)N5CCN(CCO)CC5)ccc(Cl)c34)cc2)n1
TGI (HCC-2998 colon): > 100 µM
TGI (A549 NSCLC): > 100 µM
TGI (SF-295 CNS): > 100 µM
TGI (SF-539 CNS): > 100 µM
TGI (HCT-15 colon): > 100 µM
TGI (UO-31 renal): > 100 µM
TGI (RPMI-8226 leukemia): > 100 µM
TGI (MALME-3M melanoma): > 100 µM
TGI (MOLT-4 leukemia): > 100 µM
TGI (K-562 leukemia): > 100 µM
TGI (OVCAR-3 ovarian): > 100 µM
TGI (SNB-75 CNS): > 100 µM
TGI (A498 renal): > 100 µM
TGI (SNB-19 CNS): > 100 µM
TGI (NCI-H460 lung): > 100 µM
TGI (SK-MEL-2 melanoma): > 100 µM
TGI (HCT-116 colon): > 100 µM
TGI (HOP-62 NSCLC): > 100 µM
TGI (HOP-92 NSCLC): > 100 µM
TGI (KM12 colon): > 100 µM
TGI (UACC-62 melanoma): > 100 µM
TGI (KM20L2 colon): > 100 µM
TGI (HL-60(TB) leukemia): > 100 µM
TGI (HT29 colon): > 100 µM
TGI (U251 CNS): > 100 µM
TGI (SNB-78 CNS): > 100 µM
TGI (CCRF-CEM leukemia): > 100 µM
TGI (IGROV1 ovarian): > 100 µM
TGI (OVCAR-4 ovarian): > 100 µM
TGI (SN12C renal): > 100 µM
TGI (OVCAR-5 ovarian): > 100 µM
TGI (M14 melanoma): > 100 µM
TGI (TK-10 renal): > 100 µM
TGI (SF-268 CNS): > 100 µM
TGI (DMS 273 small cell lung): > 100 µM
TGI (DMS 114 small cell lung): > 100 µM
TGI (NCI-H226 lung): > 100 µM
TGI (COLO 205 colon): > 100 µM
TGI (786-0 renal): > 100 µM
TGI (NCI-H23 lung): > 100 µM
TGI (RXF 393 renal): > 100 µM
TGI (OVCAR-8 ovarian): > 100 µM
TGI (SK-MEL-5 melanoma): > 100 µM
TGI (CAKI-1 renal): > 100 µM
TGI (UACC-257 melanoma): > 100 µM
TGI (RXF-631 renal): > 100 µM
TGI (SK-MEL-28 melanoma): > 100 µM
TGI (M19-MEL melanoma): > 100 µM
TGI (SK-OV-3 ovarian): > 100 µM

CC(=O)OC(OC(C)=O)c1ncccc1C(=O)OC(C)C
TGI (ACHN renal): > 100 µM
TGI (HCC-2998 colon): > 100 µM
TGI (A549 NSCLC): > 100 µM
TGI (SF-295 CNS): > 100 µM
TGI (SF-539 CNS): > 100 µM
TGI (HCT-15 colon): > 100 µM
TGI (UO-31 renal): > 100 µM
TGI (HOP-18 NSCLC): > 100 µM
TGI (MALME-3M melanoma): > 100 µM
TGI (MOLT-4 leukemia): > 100 µM
TGI (LOX IMVI melanoma): > 100 µM
TGI (K-562 leukemia): > 100 µM
TGI (OVCAR-3 ovarian): > 100 µM
TGI (SNB-75 CNS): > 100 µM
TGI (SW-620 colon): > 100 µM
TGI (A498 renal): > 100 µM
TGI (SNB-19 CNS): > 100 µM
TGI (NCI-H460 lung): > 100 µM
TGI (SK-MEL-2 melanoma): > 100 µM
TGI (HCT-116 colon): > 100 µM
TGI (HOP-62 NSCLC): > 100 µM
TGI (LXFL 529 NSCLC): > 100 µM
TGI (HOP-92 NSCLC): > 100 µM
TGI (EKVX NSCLC): > 100 µM
TGI (NCI-H522 lung): > 100 µM
TGI (KM12 colon): > 100 µM
TGI (UACC-62 melanoma): > 100 µM
TGI (KM20L2 colon): > 100 µM
TGI (HL-60(TB) leukemia): 28.9 µM
TGI (HT29 colon): > 100 µM
TGI (U251 CNS): > 100 µM
TGI (SNB-78 CNS): > 100 µM
TGI (CCRF-CEM leukemia): 49.1 µM
TGI (IGROV1 ovarian): > 100 µM
TGI (OVCAR-4 ovarian): > 100 µM
TGI (SN12C renal): > 100 µM
TGI (OVCAR-5 ovarian): > 100 µM
TGI (XF 498 CNS): > 100 µM
TGI (M14 melanoma): > 100 µM
TGI (TK-10 renal): > 100 µM
TGI (SF-268 CNS): > 100 µM
TGI (DMS 273 small cell lung): > 100 µM
TGI (DMS 114 small cell lung): > 100 µM
TGI (NCI-H226 lung): > 100 µM
TGI (COLO 205 colon): > 100 µM
TGI (786-0 renal): > 100 µM
TGI (NCI-H23 lung): > 100 µM
TGI (RXF 393 renal): > 100 µM
TGI (OVCAR-8 ovarian): > 100 µM
TGI (SK-MEL-5 melanoma): > 100 µM
TGI (CAKI-1 renal): > 100 µM
TGI (UACC-257 melanoma): > 100 µM
TGI (DLD-1 colon): > 100 µM
TGI (SR leukemia): > 100 µM
TGI (SK-MEL-28 melanoma): > 100 µM
TGI (M19-MEL melanoma): > 100 µM
TGI (SK-OV-3 ovarian): > 100 µM
